Assay results from ChEMBL document CHEMBL1146699, “P3 cap modified Phe*-Ala series BACE inhibitors” (Bioorg Med Chem Lett, 2004).

Columns and labels:
Beta-secretase 1 = Beta-secretase 1 (Homo sapiens, UniProt P56817); assay: In vitro inhibitory activity against Beta-secretase 1 in human HEK293 cells; type: cell-based
HEK293 [1] = assay: Inhibitory activity against beta-amyloid (Abeta) peptide in human HEK293/APP751swe cells; type: functional, cell-based
HEK293 [2] = assay: Inhibitory activity against beta-amyloid (Abeta) peptide in human HEK293/APP751swe cells; Range 0.97-1.35; type: functional, cell-based
[3] = target: T1, Beta-secretase 2 (Homo sapiens) (UniProt Q9Y5Z0); assay: Selectivity tested against Beta-secretase 2 (BACE) in human
T1 sequence (whole entry): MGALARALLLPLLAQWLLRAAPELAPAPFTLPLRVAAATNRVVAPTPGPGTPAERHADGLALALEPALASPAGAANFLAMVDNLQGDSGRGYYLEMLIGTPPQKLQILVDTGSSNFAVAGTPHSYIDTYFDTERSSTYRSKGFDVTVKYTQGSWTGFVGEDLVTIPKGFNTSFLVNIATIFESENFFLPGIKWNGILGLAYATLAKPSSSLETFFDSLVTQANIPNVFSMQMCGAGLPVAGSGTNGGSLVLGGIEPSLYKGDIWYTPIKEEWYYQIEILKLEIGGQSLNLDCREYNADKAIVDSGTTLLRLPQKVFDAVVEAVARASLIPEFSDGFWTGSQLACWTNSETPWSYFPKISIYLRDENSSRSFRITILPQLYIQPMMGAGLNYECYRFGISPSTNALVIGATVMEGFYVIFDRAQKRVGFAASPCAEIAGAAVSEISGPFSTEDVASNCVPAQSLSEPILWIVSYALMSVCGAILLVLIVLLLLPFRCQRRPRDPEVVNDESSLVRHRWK

HEK293 [4] = assay: Inhibitory activity against beta-amyloid (Abeta) peptide in human HEK293/APP751swe cells; Range 4.8-7.5; type: functional, cell-based

Sequence of Beta-secretase 1 (P56817 whole entry): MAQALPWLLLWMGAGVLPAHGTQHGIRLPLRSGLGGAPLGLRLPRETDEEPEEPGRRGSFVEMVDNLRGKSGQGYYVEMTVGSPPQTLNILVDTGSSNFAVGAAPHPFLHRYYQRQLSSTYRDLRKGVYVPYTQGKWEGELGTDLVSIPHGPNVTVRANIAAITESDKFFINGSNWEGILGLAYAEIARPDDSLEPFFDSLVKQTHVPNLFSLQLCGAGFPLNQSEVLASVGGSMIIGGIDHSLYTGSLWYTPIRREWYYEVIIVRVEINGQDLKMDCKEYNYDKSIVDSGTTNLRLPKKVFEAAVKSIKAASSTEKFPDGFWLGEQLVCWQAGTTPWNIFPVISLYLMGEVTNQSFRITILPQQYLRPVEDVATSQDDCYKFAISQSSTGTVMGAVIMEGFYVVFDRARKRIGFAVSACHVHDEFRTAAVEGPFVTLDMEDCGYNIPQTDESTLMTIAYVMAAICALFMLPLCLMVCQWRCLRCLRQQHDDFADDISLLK

## CCC(C[C@H](O)[C@H](Cc1ccccc1)NC(=O)[C@H](C)NC(=O)[C@@H](O)C(C)C)C(=O)N[C@H](C(=O)N[C@H](C)c1ccccc1)C(C)C (single isomer, unassigned)
Beta-secretase 1
  IC50: 100 nM
HEK293 [1]
  IC50: 13600 nM

## CC[C@H](C)[C@H](O)C(=O)N[C@@H](CC(F)F)C(=O)N[C@@H](Cc1ccccc1)[C@@H](O)C[C@@H](CC(F)F)C(=O)N[C@H](C(=O)NCc1ccncc1)C(C)C
Beta-secretase 1
  IC50: 3180 nM
HEK293 [1]
  IC50: > 37500 nM

## CC[C@H](C)[C@H](O)C(=O)N[C@@H](CCC(F)F)C(=O)N[C@@H](Cc1ccccc1)[C@@H](O)CC(CCC(F)F)C(=O)N[C@H](C(=O)NCc1ccncc1)C(C)C (single isomer, unassigned)
Beta-secretase 1
  IC50: 45 nM
HEK293 [1]
  IC50: 1080 nM

## CC(C[C@H](O)[C@H](Cc1ccccc1)NC(=O)[C@H](C)NC(=O)[C@@H](O)C(C)C)C(=O)N[C@H](C(=O)NCc1ccccc1)C(C)C (single isomer, unassigned)
Beta-secretase 1
  IC50: 37 nM
HEK293 [1]
  IC50: 6300 nM

## CC(C[C@H](O)[C@H](Cc1ccccc1)NC(=O)[C@H](C)NC(=O)[C@@H](O)CC(F)(F)F)C(=O)N[C@H](C(=O)NCc1ccncc1)C(C)C (single isomer, unassigned)
Beta-secretase 1
  IC50: 220 nM
HEK293 [1]
  IC50: 3900 nM

## CC(C)CC(=O)N[C@@H](C)C(=O)N[C@@H](Cc1ccccc1)[C@@H](O)CC(C)C(=O)N[C@H](C(=O)NCc1ccncc1)C(C)C (single isomer, unassigned)
Beta-secretase 1
  IC50: 1740 nM
HEK293 [1]
  IC50: > 100000 nM

## CC(C[C@H](O)[C@H](Cc1ccccc1)NC(=O)[C@H](C)NC(=O)[C@@H](F)C(C)C)C(=O)N[C@H](C(=O)NCc1ccncc1)C(C)C (single isomer, unassigned)
Beta-secretase 1
  IC50: 1130 nM
HEK293 [1]
  IC50: 49000 nM

## CC[C@H](C)[C@H](O)C(=O)N[C@@H](CCCF)C(=O)N[C@@H](Cc1ccccc1)[C@@H](O)CC(CCCF)C(=O)N[C@H](C(=O)NCc1ccncc1)C(C)C (single isomer, unassigned)
Beta-secretase 1
  IC50: 67 nM
HEK293 [2]
  IC50: < 1350 nM

## CC(C)C[C@H](O)C(=O)N[C@@H](C)C(=O)N[C@@H](Cc1ccccc1)[C@@H](O)CC(C)C(=O)N[C@H](C(=O)NCc1ccncc1)C(C)C (single isomer, unassigned)
Beta-secretase 1
  IC50: 230 nM
HEK293 [1]
  IC50: 16900 nM

## CCC(C[C@H](O)[C@H](Cc1ccccc1)NC(=O)[C@H](C)NC(=O)[C@@H](O)C(C)C)C(=O)N[C@H](C(=O)N[C@@H](C)c1ccccc1)C(C)C (single isomer, unassigned)
Beta-secretase 1
  IC50: 60 nM
HEK293 [1]
  IC50: 19800 nM

## CC(C[C@H](O)[C@H](Cc1ccccc1)NC(=O)[C@@H](NC(=O)[C@@H](O)C(C)C)C(C)C)C(=O)N[C@H](C(=O)NCc1ccncc1)C(C)C (single isomer, unassigned)
Beta-secretase 1
  IC50: 4640 nM

## CC[C@H](C)[C@H](O)C(=O)N[C@@H](CC(C)C)C(=O)N[C@@H](Cc1ccccc1)[C@@H](O)CC(CC(C)C)C(=O)N[C@H](C(=O)NCc1ccncc1)C(C)C (single isomer, unassigned)
Beta-secretase 1
  IC50: 176 nM
HEK293 [1]
  IC50: 3700 nM

## CC(C[C@H](O)[C@H](Cc1ccccc1)NC(=O)[C@H](C)NC(=O)[C@@H](N)C(C)C)C(=O)NC(C(=O)NCc1ccncc1)C(C)C (single isomer, unassigned)
Beta-secretase 1
  IC50: 190 nM
HEK293 [1]
  IC50: 38400 nM
[3]
  Selectivity: 0.52

## CC[C@H](C)[C@H](O)C(=O)N[C@@H](C)C(=O)N[C@@H](Cc1ccccc1)[C@@H](O)CC(C)C(=O)N[C@H](C(=O)NCc1ccncc1)C(C)C (single isomer, unassigned)
Beta-secretase 1
  IC50: 35 nM
HEK293 [1]
  IC50: 1230 nM

## CC(C[C@H](O)[C@H](Cc1ccccc1)NC(=O)[C@H](COC(C)(C)C)NC(=O)[C@@H](O)C(C)C)C(=O)N[C@H](C(=O)NCc1ccncc1)C(C)C (single isomer, unassigned)
Beta-secretase 1
  IC50: 4490 nM

## CCC[C@H](NC(=O)[C@@H](O)C(C)C)C(=O)N[C@@H](Cc1ccccc1)[C@@H](O)CC(C)C(=O)N[C@H](C(=O)NCc1ccncc1)C(C)C (single isomer, unassigned)
Beta-secretase 1
  IC50: 550 nM
HEK293 [1]
  IC50: 30400 nM

## CSCC[C@H](NC(=O)[C@@H](O)C(C)C)C(=O)N[C@@H](Cc1ccccc1)[C@@H](O)CC(C)C(=O)N[C@H](C(=O)NCc1ccncc1)C(C)C (single isomer, unassigned)
Beta-secretase 1
  IC50: 350 nM
HEK293 [1]
  IC50: 25200 nM

## CC(C)[C@H](O)C(=O)N[C@@H](C)C(=O)N[C@@H](Cc1ccccc1)[C@@H](O)C[C@@H](C)C(=O)N[C@H](C(=O)NCc1ccncc1)C(C)C
Beta-secretase 1
  IC50: 130 nM
HEK293 [4]
  IC50: < 7500 nM

## CC(C[C@H](O)[C@H](Cc1ccccc1)NC(=O)[C@H](CO)NC(=O)[C@@H](O)C(C)C)C(=O)N[C@H](C(=O)NCc1ccncc1)C(C)C (single isomer, unassigned)
Beta-secretase 1
  IC50: 350 nM
HEK293 [1]
  IC50: 20000 nM
